Data as given in US11464749B2, “Bismuth-thiol compositions and methods of use” (Microbion Corporation, priority 2018, dated 2022).
Values after ≈ are worked out from the molar mass of the structure shown. Where two headings read alike, the source gives them in different places.

Key:
Experiment in all cases: Broth microdilution MIC (Example 12)
Klebsiella pneumoniae = tested on: Klebsiella pneumoniae
Acinetobacter baumannii = tested on: Acinetobacter baumannii
[1] = tested on: vancomycin-intermediate Staphylococcus aureus (VISA)
Pseudomonas aeruginosa = tested on: Pseudomonas aeruginosa
Escherichia coli = tested on: Escherichia coli
[2] = K. pneumoniae ATCC BAA-1705, ESBL/KPC
[3] = K. pneumoniae ATCC BAA-1705, QC organism (Table 102)
[4] = K. pneumoniae CDC 113, ESBL/KPC
[5] = K. pneumoniae CDC 115, ESBL/KPC
[6] = K. pneumoniae CDC 120, ESBL/KPC
[7] = K. pneumoniae CDC 126, ESBL/KPC
[8] = K. pneumoniae CDC 129, ESBL/KPC
[9] = K. pneumoniae CDC 135, ESBL/VIM
[10] = K. pneumoniae CDC 138, ESBL/NDM
[11] = K. pneumoniae CDC 158, ESBL/NDM/OXA
[12] = P. aeruginosa CDC 516, KPC/AmpC
[13] = P. aeruginosa CDC 518, KPC/AmpC
[14] = E. coli ATCC 35218, QC organism (Table 102)

C[C@H]1COc2c(N3CCN(C)CC3)c(F)cc3c(=O)c(C(=O)O)cn1c23 [LVX]
MIC (Klebsiella pneumoniae; [2]): >8 mg/L
MIC (Klebsiella pneumoniae; [3]): >8 mg/L
MIC (Klebsiella pneumoniae; K. pneumoniae CDC 112, KPC): 4 mg/L (≈ 11.1 µM)
MIC (Klebsiella pneumoniae; [4]): 4 mg/L (≈ 11.1 µM)
MIC (Klebsiella pneumoniae; [5]): >8 mg/L
MIC (Klebsiella pneumoniae; [6]): >8 mg/L
MIC (Klebsiella pneumoniae; [7]): 0.015 mg/L (≈ 0.0415 µM)
MIC (Klebsiella pneumoniae; [8]): >8 mg/L
MIC (Klebsiella pneumoniae; [9]): >8 mg/L
MIC (Klebsiella pneumoniae; [10]): >8 mg/L
MIC (Klebsiella pneumoniae; [11]): 4 mg/L (≈ 11.1 µM)
MIC (Klebsiella pneumoniae; K. pneumoniae MMX 9029, ESBL): 0.12 mg/L (≈ 0.332 µM)
MIC (Acinetobacter baumannii; A. baumannii CDC 273, ESBL/OXA): >8 mg/L
MIC (Acinetobacter baumannii; A. baumannii CDC 274, ESBL/OXA): 8 mg/L (≈ 22.1 µM)
MIC (Acinetobacter baumannii; A. baumannii CDC 275, ESBL/OXA): 4 mg/L (≈ 11.1 µM)
MIC (Acinetobacter baumannii; A. baumannii CDC 277, ESBL/OXA): 8 mg/L (≈ 22.1 µM)
MIC (Acinetobacter baumannii; A. baumannii CDC 284, ESBL/OXA): 8 mg/L (≈ 22.1 µM)
MIC (Acinetobacter baumannii; A. baumannii CDC 307, OXA): 8 mg/L (≈ 22.1 µM)
MIC (Acinetobacter baumannii; A. baumannii CDC 308, ESBL/OXA): 4 mg/L (≈ 11.1 µM)
MIC (Acinetobacter baumannii; A. baumannii CDC 311, OXA): 2 mg/L (≈ 5.53 µM)
MIC (Acinetobacter baumannii; A. baumannii CDC 312, OXA): 2 mg/L (≈ 5.53 µM)
MIC (Acinetobacter baumannii; A. baumannii CDC 313, ESBL/OXA): 2 mg/L (≈ 5.53 µM)
MIC (Acinetobacter baumannii; A. baumannii NCTC 13304, OXA): 1 mg/L (≈ 2.77 µM)
MIC ([1]; S. aureus NRS 1 (hVISA)): 4 mg/L (≈ 11.1 µM)
MIC ([1]; S. aureus NRS 2): 4 mg/L (≈ 11.1 µM)
MIC ([1]; S. aureus NRS 3): >8 mg/L
MIC ([1]; S. aureus NRS 4): 4 mg/L (≈ 11.1 µM)
MIC ([1]; S. aureus NRS 13): 0.12 mg/L (≈ 0.332 µM)
MIC ([1]; S. aureus NRS 18): 4 mg/L (≈ 11.1 µM)
MIC ([1]; S. aureus NRS 22): 8 mg/L (≈ 22.1 µM)
MIC ([1]; S. aureus NRS 24 (hVISA)): >8 mg/L
MIC ([1]; S. aureus NRS 27): 8 mg/L (≈ 22.1 µM)
MIC (Pseudomonas aeruginosa; P. aeruginosa CDC 230, VIM/OXA): 8 mg/L (≈ 22.1 µM)
MIC (Pseudomonas aeruginosa; P. aeruginosa CDC 231, KPC/OXA): >8 mg/L
MIC (Pseudomonas aeruginosa; P. aeruginosa CDC 241, IMP/OXA): 8 mg/L (≈ 22.1 µM)
MIC (Pseudomonas aeruginosa; P. aeruginosa CDC 246, NDM/OXA): >8 mg/L
MIC (Pseudomonas aeruginosa; P. aeruginosa CDC 250, NDM/OXA): >8 mg/L
MIC (Pseudomonas aeruginosa; P. aeruginosa CDC 356, KPC): 0.12 mg/L (≈ 0.332 µM)
MIC (Pseudomonas aeruginosa; P. aeruginosa CDC 439, IMP): 8 mg/L (≈ 22.1 µM)
MIC (Pseudomonas aeruginosa; P. aeruginosa CDC 444, VIM): 8 mg/L (≈ 22.1 µM)
MIC (Pseudomonas aeruginosa; P. aeruginosa CDC 457, VIM): >8 mg/L
MIC (Pseudomonas aeruginosa; [12]): 0.25 mg/L (≈ 0.692 µM)
MIC (Pseudomonas aeruginosa; [13]): >8 mg/L
MIC (Escherichia coli; E. coli ATCC 35218, ESBL): ≤0.008 mg/L
MIC (Escherichia coli; [14]): ≤0.008 mg/L
MIC (Escherichia coli; E. coli ATCC BAA-2471, NDM): >8 mg/L
MIC (Escherichia coli; E. coli CDC 114, ESBL/KPC): 4 mg/L (≈ 11.1 µM)
MIC (Escherichia coli; E. coli CDC 118, ESBL/NDM): 8 mg/L (≈ 22.1 µM)
MIC (Escherichia coli; E. coli CDC 435, NDM): >8 mg/L
MIC (Escherichia coli; E. coli CDC 451, KPC): >8 mg/L
MIC (Escherichia coli; E. coli CDC 503, ESBL/NDM): >8 mg/L
MIC (Escherichia coli; E. coli MMX 5745, KPC): 8 mg/L (≈ 22.1 µM)
MIC (Escherichia coli; E. coli MMX 5755, ESBL): 8 mg/L (≈ 22.1 µM)
MIC (Escherichia coli; E. coli MMX 5756, ESBL): 4 mg/L (≈ 11.1 µM)
MIC (Escherichia coli; E. coli MMX 5758, ESBL): 8 mg/L (≈ 22.1 µM)

CC(=O)NC[C@H]1CN(c2ccc(N3CCOCC3)c(F)c2)C(=O)O1 [linezolid, reference compound]
MIC ([1]; Staphylococcus aureus, VISA, read-out: MIC values): ≤ 4 mg/L

CCCCCCCCCC(=O)NC(Cc1c[nH]c2ccccc12)C(=O)NC(CC(N)=O)C(=O)NC(CC(=O)O)C(=O)NC1C(=O)NCC(=O)NC(CCCN)C(=O)NC(CC(=O)O)C(=O)NC(C)C(=O)NC(CC(=O)O)C(=O)NCC(=O)NC(CO)C(=O)NC(C(C)CC(=O)O)C(=O)NC(CC(=O)c2ccccc2N)C(=O)OC1C (stereo not drawn) [DAP]
MIC ([1]; S. aureus NRS 1 (hVISA)): 1 mg/L (≈ 0.617 µM)
MIC ([1]; S. aureus NRS 2): 0.25 mg/L (≈ 0.154 µM)
MIC ([1]; S. aureus NRS 3): 1 mg/L (≈ 0.617 µM)
MIC ([1]; S. aureus NRS 4): 0.5 mg/L (≈ 0.309 µM)
MIC ([1]; S. aureus NRS 13): 2 mg/L (≈ 1.23 µM)
MIC ([1]; S. aureus NRS 18): 0.5 mg/L (≈ 0.309 µM)
MIC ([1]; S. aureus NRS 22): 2 mg/L (≈ 1.23 µM)
MIC ([1]; S. aureus NRS 24 (hVISA)): 0.5 mg/L (≈ 0.309 µM)
MIC ([1]; S. aureus NRS 27): 0.25 mg/L (≈ 0.154 µM)

CC(C)(O/N=C(\C(=O)N[C@@H]1C(=O)N2C(C(=O)[O-])=C(C[n+]3ccccc3)CS[C@H]12)c1csc(N)n1)C(=O)O [CAZ]
MIC (Klebsiella pneumoniae; [2]): >64 mg/L
MIC (Klebsiella pneumoniae; [3]): >64 mg/L
MIC (Klebsiella pneumoniae; K. pneumoniae CDC 112, KPC): >64 mg/L
MIC (Klebsiella pneumoniae; [4]): >64 mg/L
MIC (Klebsiella pneumoniae; [5]): >64 mg/L
MIC (Klebsiella pneumoniae; [6]): >64 mg/L
MIC (Klebsiella pneumoniae; [7]): 4 mg/L (≈ 7.32 µM)
MIC (Klebsiella pneumoniae; [8]): >64 mg/L
MIC (Klebsiella pneumoniae; [9]): >64 mg/L
MIC (Klebsiella pneumoniae; [10]): >64 mg/L
MIC (Klebsiella pneumoniae; [11]): >64 mg/L
MIC (Klebsiella pneumoniae; K. pneumoniae MMX 9029, ESBL): 4 mg/L (≈ 7.32 µM)
MIC (Acinetobacter baumannii; A. baumannii CDC 273, ESBL/OXA): 64 mg/L (≈ 117 µM)
MIC (Acinetobacter baumannii; A. baumannii CDC 274, ESBL/OXA): >64 mg/L
MIC (Acinetobacter baumannii; A. baumannii CDC 275, ESBL/OXA): >64 mg/L
MIC (Acinetobacter baumannii; A. baumannii CDC 277, ESBL/OXA): >64 mg/L
MIC (Acinetobacter baumannii; A. baumannii CDC 284, ESBL/OXA): 64 mg/L (≈ 117 µM)
MIC (Acinetobacter baumannii; A. baumannii CDC 307, OXA): 64 mg/L (≈ 117 µM)
MIC (Acinetobacter baumannii; A. baumannii CDC 308, ESBL/OXA): 64 mg/L (≈ 117 µM)
MIC (Acinetobacter baumannii; A. baumannii CDC 311, OXA): >64 mg/L
MIC (Acinetobacter baumannii; A. baumannii CDC 312, OXA): >64 mg/L
MIC (Acinetobacter baumannii; A. baumannii CDC 313, ESBL/OXA): >64 mg/L
MIC (Acinetobacter baumannii; A. baumannii NCTC 13304, OXA): >64 mg/L
MIC (Pseudomonas aeruginosa; P. aeruginosa CDC 230, VIM/OXA): 64 mg/L (≈ 117 µM)
MIC (Pseudomonas aeruginosa; P. aeruginosa CDC 231, KPC/OXA): >64 mg/L
MIC (Pseudomonas aeruginosa; P. aeruginosa CDC 241, IMP/OXA): >64 mg/L
MIC (Pseudomonas aeruginosa; P. aeruginosa CDC 246, NDM/OXA): >64 mg/L
MIC (Pseudomonas aeruginosa; P. aeruginosa CDC 250, NDM/OXA): >64 mg/L
MIC (Pseudomonas aeruginosa; P. aeruginosa CDC 356, KPC): 64 mg/L (≈ 117 µM)
MIC (Pseudomonas aeruginosa; P. aeruginosa CDC 439, IMP): >64 mg/L
MIC (Pseudomonas aeruginosa; P. aeruginosa CDC 444, VIM): 32 mg/L (≈ 58.5 µM)
MIC (Pseudomonas aeruginosa; P. aeruginosa CDC 457, VIM): >64 mg/L
MIC (Pseudomonas aeruginosa; [12]): 64 mg/L (≈ 117 µM)
MIC (Pseudomonas aeruginosa; [13]): 32 mg/L (≈ 58.5 µM)
MIC (Escherichia coli; E. coli ATCC 35218, ESBL): 0.12 mg/L (≈ 0.22 µM)
MIC (Escherichia coli; [14]): 0.12 mg/L (≈ 0.22 µM)
MIC (Escherichia coli; E. coli ATCC BAA-2471, NDM): >64 mg/L
MIC (Escherichia coli; E. coli CDC 114, ESBL/KPC): >64 mg/L
MIC (Escherichia coli; E. coli CDC 118, ESBL/NDM): >64 mg/L
MIC (Escherichia coli; E. coli CDC 435, NDM): >64 mg/L
MIC (Escherichia coli; E. coli CDC 451, KPC): 64 mg/L (≈ 117 µM)
MIC (Escherichia coli; E. coli CDC 503, ESBL/NDM): >64 mg/L
MIC (Escherichia coli; E. coli MMX 5745, KPC): 32 mg/L (≈ 58.5 µM)
MIC (Escherichia coli; E. coli MMX 5755, ESBL): >64 mg/L
MIC (Escherichia coli; E. coli MMX 5756, ESBL): >64 mg/L
MIC (Escherichia coli; E. coli MMX 5758, ESBL): 16 mg/L (≈ 29.3 µM)
